The values that follow come from patent US9840510B1, “Pyrazolo[1,5-a]pyrimidinyl carboxamide compounds and their use in the treatment of medical disorders” (Lysosomal Therapeutics Inc., priority 2016, dated 2017).

Data set [1] has as its target T1, glucocerebrosidase (Gcase) (Homo sapiens, UniProt P04062).
T1 sequence (P04062 40-536): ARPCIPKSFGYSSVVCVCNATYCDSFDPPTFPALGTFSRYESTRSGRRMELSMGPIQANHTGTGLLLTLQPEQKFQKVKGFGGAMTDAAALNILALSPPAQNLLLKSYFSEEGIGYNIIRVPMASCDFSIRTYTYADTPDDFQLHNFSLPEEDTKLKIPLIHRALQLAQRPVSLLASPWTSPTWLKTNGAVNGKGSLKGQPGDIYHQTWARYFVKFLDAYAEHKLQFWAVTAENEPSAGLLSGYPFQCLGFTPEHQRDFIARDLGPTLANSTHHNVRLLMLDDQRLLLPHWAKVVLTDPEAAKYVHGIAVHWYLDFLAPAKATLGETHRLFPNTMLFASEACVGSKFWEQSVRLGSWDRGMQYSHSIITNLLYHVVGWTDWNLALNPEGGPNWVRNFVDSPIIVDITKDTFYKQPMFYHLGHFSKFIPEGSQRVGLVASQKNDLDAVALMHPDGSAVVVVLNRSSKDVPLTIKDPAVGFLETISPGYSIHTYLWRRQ
Briefly: Glucocerebrosidase (Gcase) activation assay, 4-methylumbelliferyl-beta-D-glucopyranoside substrate, fluorescence endpoint. The data set is classed as biochemical. The following applies: for Percent Gcase Activation, 0.1 μM Test Compound: test compound at 0.1 μM; for Percent Gcase Activation, 1 μM Test Compound: test compound at 1.0 μM. As to the method:
The ability of exemplary compounds to activate glucocerebrosidase (Gcase) was measured.
A 484 μL aliquot of a 1.0 mg/mL solution of phosphatidylserine (PS) (Sigma P7769) in chloroform was evaporated under a stream of nitrogen for 1 hour. The lipid film was dissolved over 4 minutes of vigorous vortexing in 40 mL of 176 mM K2HPO4/50 mM citric acid (pH 4.7) containing 7.5 μL of triton X-100, resulting in a mixed micellar preparation with a composition of 0.32 mM triton and 0.37 mol % PS. 4-Methylumbelliferyl-beta-D-glucopyranoside (ACROS-337025000) was dissolved in the micellar solution to a final concentration of 2 mM for use as the reaction substrate.
Test compounds were diluted to the desired concentrations with dimethylsulfoxide (DMSO) from 10 mM stocks, and 0.41 μL of the DMSO compound mixture was added to 100 μL of micellar solution containing 10 nM GCase and 100 nM saposin C (Enzo ALX-201-262-C050). Pre-incubation was allowed to occur for 30 minutes at room temperature, after which the reaction was initiated by combining 25 μL of substrate solution with 25 μL of compound/GCase/saposin mixture. The reaction proceeded for 15 minutes at room temperature and was stopped by adding 150 μL of 1M glycine, pH 12.5. The endpoint of the reaction was monitored by measuring fluorescence intensity (excitation: 365 nm; emission: 440 nm) on a SpectraMax i3 instrument (Molecular Devices). Test compounds were screened at 1.0 and 0.1 μM final concentration, and subsequent 8-point dose response curves were obtained using 3-fold dilutions from a maximum final concentration of 5 μM.

Data set [2] can be described thus: Compound solubility in water. Format: physicochemical.

Molecules are shown by their SMILES. Converted amounts (≈) assume the structure as drawn.

Regarding `COc1cccc(-c2cc(C)n3ncc(C(=O)NC(C4CC4)C(F)(F)F)c3n2)c1` (stereo not drawn) [III-105], in data set [1], the “Percent Gcase Activation, 0.1 μM Test Compound” value was “*** (greater than 20% Gcase activation)” and the “Percent Gcase Activation, 1 μM Test Compound” value is recorded as “+++ (Gcase activation greater than 60%)”. Besides, in data set [2], the concentration in solution (solubility) was 0.08 µg/mL (≈ 0.198 µM).

`Cc1cc(-c2ccc(Cl)cn2)nc2c(C(=O)N[C@@H](C3CC3)C(F)(F)F)cnn12` [III-118]: in data set [1], the “Percent Gcase Activation, 0.1 μM Test Compound” value is reported as “*** (greater than 20% Gcase activation)” and the “Percent Gcase Activation, 1 μM Test Compound” value is “+++ (Gcase activation greater than 60%)”. In data set [2], the solubility (as a rule, the concentration that dissolves in the medium under given conditions) stood at 0.4 µg/mL (≈ 0.976 µM).

With `Cc1cc(-c2cccc(F)n2)nc2c(C(=O)NC(C)C3CC3)cnn12` (stereo not drawn) [III-130], in data set [1], the “Percent Gcase Activation, 0.1 μM Test Compound” value was “*** (greater than 20% Gcase activation)” and the “Percent Gcase Activation, 1 μM Test Compound” value is reported as “+++ (Gcase activation greater than 60%)”. The compound also came in with a solubility in data set [2] of 0.2 µg/mL (≈ 0.589 µM).
